Reference: the NIST ThermoML archive (doi:10.1021/je060170c)
± gives the expanded uncertainty stated by the source.

Assay: xn = mol fraction of the nth substance listed
Details: 101 kPa, Liquid; for viscosity: Anton Paar Stabinger viscometer

COc1ccccc1 [anisole] + Cc1ccc(C)cc1
Details	mass density [kg/m3]	speed of sound [m/s]	viscosity [mPa·s]
288.15 K, x1 = 0.0822	875.328 ± 0.36	1360.3 ± 5.5	0.728 ± 0.022
288.15 K, x1 = 0.187	888.441 ± 0.34	1373.1 ± 5.5	0.778 ± 0.024
288.15 K, x1 = 0.31	904.181 ± 0.33	1384.4 ± 5.6	0.829 ± 0.025
288.15 K, x1 = 0.47	925.057 ± 0.3	1395.9 ± 5.6	0.884 ± 0.027
288.15 K, x1 = 0.637	947.54 ± 0.28	1410.4 ± 5.7	0.958 ± 0.029
288.15 K, x1 = 0.747	962.692 ± 0.26	1420.6 ± 5.7	1.013 ± 0.031
288.15 K, x1 = 0.822	973.119 ± 0.25	1437 ± 5.7	1.109 ± 0.034
288.15 K, x1 = 0.888	982.387 ± 0.24	1443 ± 5.8	1.145 ± 0.035
288.15 K, x1 = 0.949	991.051 ± 0.23	1446.3 ± 5.8	1.167 ± 0.035
288.15 K, x1 = 1	998.44 ± 0.23	1449.1 ± 5.8	1.188 ± 0.036
293.15 K, x1 = 0.0822	871.032 ± 0.37	1339.5 ± 5.4	0.674 ± 0.02
293.15 K, x1 = 0.187	884.105 ± 0.35	1352.5 ± 5.5	0.717 ± 0.022
293.15 K, x1 = 0.31	899.758 ± 0.33	1364 ± 5.5	0.761 ± 0.023
293.15 K, x1 = 0.47	920.561 ± 0.31	1375.3 ± 5.5	0.809 ± 0.025
293.15 K, x1 = 0.637	942.968 ± 0.28	1389.9 ± 5.6	0.875 ± 0.027
293.15 K, x1 = 0.747	958.092 ± 0.27	1400.3 ± 5.6	0.925 ± 0.028
293.15 K, x1 = 0.822	968.502 ± 0.26	1416.7 ± 5.7	1.013 ± 0.031
293.15 K, x1 = 0.888	977.769 ± 0.25	1422.5 ± 5.7	1.046 ± 0.032
293.15 K, x1 = 0.949	986.356 ± 0.24	1425.8 ± 5.7	1.066 ± 0.032
293.15 K, x1 = 1	993.651 ± 0.23	1428.5 ± 5.7	1.084 ± 0.033
298.15 K, x1 = 0.0822	866.765 ± 0.37	1317.4 ± 5.4	0.635 ± 0.019
298.15 K, x1 = 0.187	879.807 ± 0.36	1326.5 ± 5.4	0.674 ± 0.02
298.15 K, x1 = 0.31	895.413 ± 0.34	1337.5 ± 5.4	0.714 ± 0.022
298.15 K, x1 = 0.47	916.177 ± 0.32	1352.2 ± 5.5	0.759 ± 0.023
298.15 K, x1 = 0.637	938.559 ± 0.29	1368.2 ± 5.5	0.821 ± 0.025
298.15 K, x1 = 0.747	953.665 ± 0.28	1379.3 ± 5.6	0.868 ± 0.026
298.15 K, x1 = 0.822	964.094 ± 0.26	1387.4 ± 5.6	0.952 ± 0.029
298.15 K, x1 = 0.888	973.344 ± 0.25	1394.8 ± 5.6	0.985 ± 0.03
298.15 K, x1 = 0.949	981.943 ± 0.25	1401.8 ± 5.6	1.003 ± 0.03
298.15 K, x1 = 1	989.105 ± 0.24	1408 ± 5.7	1.017 ± 0.031
303.15 K, x1 = 0.0822	862.434 ± 0.38	1296.9 ± 5.3	0.597 ± 0.018
303.15 K, x1 = 0.187	875.432 ± 0.36	1306.5 ± 5.3	0.628 ± 0.019
303.15 K, x1 = 0.31	890.974 ± 0.35	1317.6 ± 5.4	0.662 ± 0.02
303.15 K, x1 = 0.47	911.659 ± 0.32	1332.7 ± 5.4	0.7 ± 0.021
303.15 K, x1 = 0.637	933.983 ± 0.3	1349.1 ± 5.5	0.754 ± 0.023
303.15 K, x1 = 0.747	949.069 ± 0.28	1360.5 ± 5.5	0.798 ± 0.024
303.15 K, x1 = 0.822	959.511 ± 0.27	1368.5 ± 5.5	0.875 ± 0.027
303.15 K, x1 = 0.888	968.761 ± 0.26	1375.6 ± 5.6	0.903 ± 0.027
303.15 K, x1 = 0.949	977.313 ± 0.25	1382.3 ± 5.6	0.918 ± 0.028
303.15 K, x1 = 1	984.372 ± 0.24	1387.7 ± 5.6	0.931 ± 0.028
